Reference: ChEMBL document CHEMBL4354883, “Design, Synthesis, and Biological Evaluation of HSP90 Inhibitor-SN38 Conjugates for Targeted Drug Accumulation” (J Med Chem, 2020)
Activity calls are given as the source filed them. The rule behind the calls is not given here.

Experiments:
[1] = system: CAPAN-1; test: Antiproliferative activity against human Capan1 cells assessed as reduction in cell viability after 72 hrs by SRB assay; format: functional, cell-based; conditions: CAPAN-1, 72 h
[2] = system: CAPAN-1; conditions: Homo sapiens, 28 mg/kg
Description: Antitumor activity against human Capan1 cells xenografted in mouse assessed as reduction in tumor weight at 28 mg/kg, iv for every 2 days and measured twice per week by caliper method

[3] = system: A549; test: Antiproliferative activity against human A549 cells assessed as reduction in cell viability after 72 hrs by SRB assay; format: functional, cell-based; conditions: A549, 72 h
[4] = system: HCT-116; test: Antitumor activity against human HCT116 cells xenografted in mouse assessed as reduction in tumor volume at 50 mg/kg, iv for 5 consecutive days per week and measured every 3 to 4 days up to 14 days by microcaliper analysis relative to control; format: functional
[5] = system: A549; conditions: Homo sapiens, 0.2 uM
Description: Downregulation of TOP1 expression in human A549 cells at 0.2 uM after 24 hrs by Western blot analysis

[6] = system: HCT-116; test: Antiproliferative activity against human HCT116 cells assessed as reduction in cell viability after 72 hrs by SRB assay; format: functional, cell-based; conditions: HCT-116, 72 h
[7] = species on record: Mus musculus; conditions: 28 mg/kg
Description: In vivo inhibition of HSP90 in mouse xenografted with human Capan1 cells assessed as decrease in AKT protein expression at 28 mg/kg, iv for every 2 days measured at 2 hrs post last dose by Western blot analysis

[8] = species on record: Mus musculus; conditions: 28 mg/kg; remark: listed apart in the source
Description: In vivo inhibition of HSP90 in mouse xenografted with human Capan1 cells assessed as increase in HSP70 protein expression at 28 mg/kg, iv for every 2 days measured at 2 hrs post last dose by Western blot analysis

[9] = system: HCT-116; conditions: Homo sapiens, 0.2 uM
Description: Downregulation of TOP1 expression in human HCT116 cells at 0.2 uM after 24 hrs by Western blot analysis

[10] = system: CAPAN-1; test: Antitumor activity against human Capan1 cells xenografted in mouse assessed as reduction in tumor volume at 28 mg/kg, iv for every 2 days and measured twice per week by microcaliper method relative to control; format: functional
[11] = system: MIA PaCa-2; test: Antiproliferative activity against human MIAPaCa2 cells assessed as reduction in cell viability after 72 hrs by SRB assay; format: functional, cell-based; conditions: MIA PaCa-2, 72 h
[12] = system: L02; test: Cytotoxicity agains human HL7702 cells assessed as reduction in cell viability after 72 hrs by SRB assay; format: cell-based; conditions: L02, 72 h
[13] = biological target: Heat shock protein HSP 90-alpha (Homo sapiens, UniProt P07900); test: biochemical
Description: Inhibition of recombinant human full length HSP90 alpha expressed in Escherichia coli cells after 1 hr by fluorescence polarization assay

[14] = Half life of compound in PBS buffer at pH 6.0 at 50 uM by HPLC analysis; format: physicochemical
[15] = Half life in mouse plasma at 25 uM by HPLC analysis; format: ADME, cell-free
[16] = Half life in human plasma at 25 uM by HPLC analysis; format: ADME, cell-free
[17] = Half life of compound in PBS buffer at pH 7.4 at 50 uM by HPLC analysis; format: physicochemical

| IC50 [3] [nM] | IC50 [6] [nM] | IC50 [11] [nM] | SMILES | IC50 [1] [nM] | inhibition [2] | T/C [4] [%] | inhibition [5] | inhibition [7] | inhibition [8] | inhibition [9] | T/C [10] [%] | IC50 [12] [nM] | IC50 [13] [nM] | half-life at 50 µM [14] [h] | half-life at 25 µM [15] [h] | half-life at 25 µM [16] [h] | half-life at 50 µM [17] [h] |
| --- | --- | --- | --- | --- | --- | --- | --- | --- | --- | --- | --- | --- | --- | --- | --- | --- | --- |
| 39 | 121 | 38 | CCNC(=O)c1noc(-c2cc(C(C)C)c(O)cc2O)c1-c1ccc(CN2CCOCC2)cc1 [LUMINESPIB] | 657 | Active | 49.9 | Active | Active | Active | Active | 57.03 | 1360 |  |  |  |  |  |
|  |  |  | CCc1c2c(nc3ccc(OC(=O)N4CCC(NC(=O)CNc5cc(-n6nc(C(F)(F)F)c7c6CC(C)(C)CC7=O)ccc5C(N)=O)CC4)cc13)-c1cc3c(c(=O)n1C2)COC(=O)[C@]3(O)CC |  |  |  |  |  |  |  |  |  | 1260 | > 24 | > 24 | > 24 | > 24 |
|  |  |  | CC1(C)CC(=O)c2c(C(F)(F)F)nn(-c3ccc(C(N)=O)c(N[C@H]4CC[C@H](OC(=O)CN)CC4)c3)c2C1 [SNX 5422] |  |  |  |  |  |  |  |  |  | 38 |  |  |  |  |
